Results from the supplement of paper PMC11061612.

Tests used:
Test in all cases: Bliss excess, mean over the matrix (fraction); higher = more synergy
[1] = test system: RC-K8 (B-Cell Non-Hodgkin's Lymphoma)
Summary of the method: (§1)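 After 24 hours at 37°C and 5% CO2 in 1536-well plates, cells in DMEM/F12 or RPMI plus 10% FBS received two-drug dose matrices for 72 hours. Viability came from CellTiter-Glo 2.0 luminescence and was scaled as inhibition, anchored at 0 by vehicle wells and at 1 by blank wells. Combination Emax is taken as the second-highest inhibition in the matrix, and Bliss excess as the observed combination effect less EA + EB − EA·EB, with EA and EB the single-agent effects.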

[2] = test system: TCCSUP (Bladder Carcinoma)
Summary of the method: as §1

[3] = test system: CaR-1 (Colorectal Carcinoma)
Summary of the method: as §1

[4] = test system: UM-UC-3 (Bladder Carcinoma)
Summary of the method: as §1

[5] = test system: TE-9 (Esophageal Squamous Cell Carcinoma)
Summary of the method: as §1

NB10 (Neuroblastoma) = test system: NB10 (Neuroblastoma)
Summary of the method: as §1

[6] = test system: LS-180 (Colorectal Carcinoma)
Summary of the method: as §1

[7] = test system: NCI-H82 (Small Cell Lung Carcinoma)
Summary of the method: as §1

HOS (Osteosarcoma) = test system: HOS (Osteosarcoma)
Summary of the method: as §1

[8] = test system: KP-1N (Pancreatic Carcinoma)
Summary of the method: as §1

[9] = test system: LB831-BLC (Bladder Carcinoma)
Summary of the method: as §1

[10] = test system: DEL (T-Cell Non-Hodgkin's Lymphoma)
Summary of the method: as §1

[11] = test system: CCRF-CEM (T-Lymphoblastic Leukemia)
Summary of the method: as §1

[12] = test system: OVCA420 (Ovarian Carcinoma)
Summary of the method: as §1

[13] = test system: COLO-205 (Colorectal Carcinoma)
Summary of the method: as §1

KELLY (Neuroblastoma) = test system: KELLY (Neuroblastoma)
Summary of the method: as §1

[14] = test system: EC-GI-10 (Esophageal Squamous Cell Carcinoma)
Summary of the method: as §1

[15] = test system: HCC-78 (Lung Adenocarcinoma)
Summary of the method: as §1

[16] = test system: RO82-W-1 (Thyroid Gland Carcinoma)
Summary of the method: as §1

[17] = test system: TE-15 (Esophageal Squamous Cell Carcinoma)
Summary of the method: as §1

Structure (SMILES) | Bliss excess [1] | Bliss excess [2] | Bliss excess [3] | Bliss excess [4] | Bliss excess [5] | Bliss excess (NB10 (Neuroblastoma)) | Bliss excess [6] | Bliss excess [7] | Bliss excess (HOS (Osteosarcoma)) | Bliss excess [8] | Bliss excess [9] | Bliss excess [10] | Bliss excess [11] | Bliss excess [12] | Bliss excess [13] | Bliss excess (KELLY (Neuroblastoma)) | Bliss excess [14] | Bliss excess [15] | Bliss excess [16] | Bliss excess [17]
NC1(C(=O)N[C@@H](CCO)c2ccc(Cl)cc2)CCN(c2ncnc3[nH]ccc23)CC1 [Capivasertib] + COc1nnc2ccc(N3CCC(c4ccc(OCCN5CCN(C)C(=O)[C@H]5C)cc4)CC3)nn12 [AZD5153] (first compound max 10 µM, 7x7, partner max 1 µM) | -0.0101 | 0.0311 | 0.0378 | -0.0158 | 0.0567 | 0.0121 | -0.0055 | -0.139 | 0.041 | 0.0274 | 0.0335 | -0.0363 | 0.058 | -0.0496 | 0.0237 | 0.0184 | 0.0434 | 0.0193 | -0.0585 | 0.0642
COc1nnc2ccc(N3CCC(c4ccc(OCCN5CCN(C)C(=O)[C@H]5C)cc4)CC3)nn12 [AZD5153] + Cc1c2c(nn1C)CSCc1cc(n(C)n1)CSc1cc(c3ccccc3c1)OCCCc1c(C(=O)O)n(C)c3c-2c(Cl)ccc13 [AZD5991] (first compound max 1 µM, 7x7, partner max 1 µM) | -0.0446 | -0.0234 | -0.0548 | 0.0031 | -0.007 | -0.0446 | -0.0279 | -0.0659 | 0.0009 | -0.0176 | -0.0588 | -0.0475 | -0.0035 | -0.0933 | -0.0303 | 0.0357 | 0.0527 | -0.0184 | -0.0181 | -0.0124
COc1cccc(OCCCN)c1-c1cc(Nc2cnc(C#N)cn2)n[nH]1 [Prexasertib] + CCc1c2c(nc3ccc(O)cc13)-c1cc3c(c(=O)n1C2)COC(=O)[C@]3(O)CC [SN-38] (first compound max 1 µM, 7x7, partner max 0.3 µM) | -0.0506 | 0.0743 | -0.053 | 0.0017 | 0.0438 | -0.0986 | -0.0629 | 0.0347 | 0.0409 | 0 | 0.0581 | -0.0068 | -0.0078 | 0.0326 | 0.153 | -0.0098 | 0.0252 | -0.0337 | 0.0431 | -0.0275
COc1nnc2ccc(N3CCC(c4ccc(OCCN5CCN(C)C(=O)[C@H]5C)cc4)CC3)nn12 [AZD5153] + C[C@@H]1COCCN1C2=NC(=NC(=C2)C3(CC3)[S@](=N)(=O)C)C4=C5C=CNC5=NC=C4 [AZD6738] (first compound max 1 µM, 7x7, partner max 10 µM) | -0.0424 | -0.0327 | 0.0411 | 0.0647 | 0.0039 | 0.0214 | -0.0165 | -0.0906 | -0.0413 | 0.131 | 0.0393 | 0.0007 | -0.0178 | -0.0057 | -0.0115 | -0.0107 | 0.0203 | -0.0235 | 0.0259 | -0.0096
C[C@@H](c1ccc2nccn2c1)n1nnc2ncc(-c3cnn(C)c3)nc21 [Savolitinib] + Cc1c2c(nn1C)CSCc1cc(n(C)n1)CSc1cc(c3ccccc3c1)OCCCc1c(C(=O)O)n(C)c3c-2c(Cl)ccc13 [AZD5991] (first compound max 1 µM, 7x7, partner max 1 µM) | -0.0257 | -0.0262 | -0.0725 | -0.0161 | -0.0683 | -0.0278 | -0.015 | -0.0763 | -0.0188 | -0.0637 | -0.0148 | -0.0441 | 0.0088 | -0.0134 | -0.0386 | -0.0138 | -0.07 | -0.0366 | -0.0386 | -0.0511
C=CCn1c(=O)c2cnc(Nc3ccc(N4CCN(C)CC4)cc3)nc2n1-c1cccc(C(C)(C)O)n1 [AZD1775] + C1CN(CCC1(C(=O)N[C@@H](CCO)C2=CC=C(C=C2)Cl)N)C3=NC=NC4=C3C=CN4 [Capivasertib] (first compound max 3 µM, partner max 3 µM) | -0.002 | 0.0046 | 0.0453 | 0.0405 | -0.002 | -0.18 | -0.0513 | 0.003 | -0.0141 | -0.0101 | -0.0434 | 0.0666 | 0.0122 | -0.0518 | 0.102 | -0.0393 | 0.0203 | -0.0672 | -0.0678 | 0.0494
CN(CCO)CC[C@H](CSc1ccccc1)Nc1ccc(S(=O)(=O)NC(=O)c2ccc(N3CCC([C@@H](O)c4ccccc4-c4ccc(Cl)cc4)CC3)cc2)cc1S(=O)(=O)C(F)(F)F [AZD4320] + C1CN(CCC1(C(=O)N[C@@H](CCO)C2=CC=C(C=C2)Cl)N)C3=NC=NC4=C3C=CN4 [Capivasertib] (first compound max 1 µM, 7x7, partner max 3 µM) | -0.0241 | -0.0568 | -0.0668 | -0.0228 | 0.0169 | -0.0288 | -0.0389 | 0.0177 | -0.0467 | -0.0389 | -0.0212 | -0.0028 | 0.0753 | -0.0601 | -0.0031 | -0.0433 | 0.0003 | -0.034 | -0.0513 | -0.042
Cn1cnc2c(F)c(Nc3ccc(Br)cc3Cl)c(C(=O)NOCCO)cc21 [Selumetinib] + C[C@@H]1COCCN1C2=NC(=NC(=C2)C3(CC3)[S@](=N)(=O)C)C4=C5C=CNC5=NC=C4 [AZD6738] (first compound max 10 µM, 7x7, partner max 10 µM) | 0.0091 | -0.0141 | -0.069 | 0.0057 | -0.0063 | -0.0247 | -0.0516 | -0.0337 | -0.0613 | -0.0061 | -0.0569 | 0.0172 | -0.0108 | 0.078 | 0.0526 | -0.015 | 0.0623 | -0.0254 | -0.0242 | 0.0391
CC(=O)c1c(C)c2cnc(Nc3ccc(N4CCNCC4)cn3)nc2n(C2CCCC2)c1=O [Palbociclib] + Cc1c2c(nn1C)CSCc1cc(n(C)n1)CSc1cc(c3ccccc3c1)OCCCc1c(C(=O)O)n(C)c3c-2c(Cl)ccc13 [AZD5991] (first compound max 10 µM, 7x7, partner max 1 µM) | -0.0555 | -0.0395 | -0.0621 | -0.0212 | -0.0334 | 0.0435 | -0.0515 | -0.0534 | -0.0182 | -0.0384 | -0.0092 | 0.0007 | -0.014 | -0.0313 | -0.0487 | 0.0123 | 0.0305 | -0.0015 | -0.0283 | -0.0236
CC(=O)c1c(C)c2cnc(Nc3ccc(N4CCNCC4)cn3)nc2n(C2CCCC2)c1=O [Palbociclib] + CC1(C)CCC(CN2CCN(c3ccc(C(=O)NS(=O)(=O)c4ccc(NCC5CCOCC5)c([N+](=O)[O-])c4)c(Oc4cnc5[nH]ccc5c4)c3)CC2)=C(c2ccc(Cl)cc2)C1 [Venetoclax] (first compound max 10 µM, 7x7, partner max 1 µM) | -0.0904 | -0.0508 | -0.0507 | -0.0219 | -0.035 | 0.0062 | -0.0124 | -0.0648 | -0.0218 | -0.0396 | -0.0523 | 0.027 | -0.008 | -0.0468 | -0.0065 | 0.0358 | -0.0031 | -0.0244 | -0.0825 | -0.0257
Cc1c2c(nn1C)CSCc1cc(n(C)n1)CSc1cc(c3ccccc3c1)OCCCc1c(C(=O)O)n(C)c3c-2c(Cl)ccc13 [AZD5991] + C=CCn1c(=O)c2cnc(Nc3ccc(N4CCN(C)CC4)cc3)nc2n1-c1cccc(C(C)(C)O)n1 [AZD1775] (first compound max 1 µM, partner max 1 µM) | -0.0294 | -0.0021 | -0.0103 | -0.0077 | 0.0286 | -0.0441 | 0.0495 | -0.0532 | -0.0274 | -0.0696 | -0.0044 | -0.0201 | -0.0011 | -0.0002 | -0.0959 | 0.0322 | 0.0389 | -0.0329 | -0.0197 | -0.0135
COc1nnc2ccc(N3CCC(c4ccc(OCCN5CCN(C)C(=O)[C@H]5C)cc4)CC3)nn12 [AZD5153] + CCN(CCO)CCCOc1ccc2c(Nc3cc(CC(=O)Nc4cccc(F)c4)[nH]n3)ncnc2c1 [AZD2811] (first compound max 1 µM, 7x7, partner max 1 µM) | 0.0154 | -0.0398 | -0.0663 | 0.0346 | -0.0096 | -0.0289 | -0.111 | -0.064 | -0.0093 | -0.0273 | -0.0647 | -0.0462 | -0.0407 | -0.0547 | -0.0595 | -0.0406 | -0.0142 | -0.0314 | -0.0483 | -0.0535
CN(CCO)CC[C@H](CSc1ccccc1)Nc1ccc(S(=O)(=O)NC(=O)c2ccc(N3CCC([C@@H](O)c4ccccc4-c4ccc(Cl)cc4)CC3)cc2)cc1S(=O)(=O)C(F)(F)F [AZD4320] + Cn1cnc2c(F)c(Nc3ccc(Br)cc3Cl)c(C(=O)NOCCO)cc21 [Selumetinib] (first compound max 1 µM, 7x7, partner max 3 µM) | 0.0467 | 0.0157 | -0.0573 | -0.0058 | 0.0456 | 0 | 0.0159 | -0.0009 | 0.0245 | -0.0277 | -0.0298 | 0.103 | 0.0099 | 0.0225 | 0.026 | 0.0525 | 0.0802 | 0.0491 | -0.0139 | -0.0391
CN(CCO)CC[C@H](CSc1ccccc1)Nc1ccc(S(=O)(=O)NC(=O)c2ccc(N3CCC([C@@H](O)c4ccccc4-c4ccc(Cl)cc4)CC3)cc2)cc1S(=O)(=O)C(F)(F)F [AZD4320] + C=CCn1c(=O)c2cnc(Nc3ccc(N4CCN(C)CC4)cc3)nc2n1-c1cccc(C(C)(C)O)n1 [AZD1775] (first compound max 1 µM, partner max 1 µM) | 0.0829 | 0.0373 | -0.0375 | -0.0064 | 0.0368 | 0.0304 | 0.0046 | 0.0113 | 0.0337 | -0.0325 | 0.0317 | 0.0464 | 0.0065 | -0.0291 | 0.0243 | 0.0505 | -0.0597 | -0.0072 | -0.0364 | -0.0137
